Assay results from patent US20170121322A1, “BET-PROTEIN INHIBITING 3,4-DIHYDROPYRIDO[2,3-B]PYRAZINONES WITH META-SUBSTITUTED AROMATIC AMINO- OR ETHER GROUPS” (Bayer Pharma Aktiengesellschaft, priority 2014, published 2017).

Tests used:
[1] = molecular target: T1, BRD4 bromo domain 2 [BRD4(2)] (Homo sapiens, UniProt O60885); test: BRD4(2)/acetylated peptide H4 TR-FRET binding assay; conditions: His6-BRD4(2) (aa 357-445) vs acetylated histone H4 peptide
T1 construct: N-terminally His6-tagged BRD4(2) (amino acids 357-445); made in house; host or cells: E. coli
Source text: To assess the BRD4(2) binding strength of the substances described in this application, the ability thereof to inhibit the interaction between BRD4(2) and acetylated histone H4 in a dose-dependent manner was quantified.
For this purpose, a time-resolved fluorescence resonance energy transfer (TR-FRET) assay was used, which measures the binding between N-terminally His6-tagged BRD4(2) (amino acids 357-445) and a synthetic acetylated histone H4 (Ac-H4) peptide with sequence SGRGK(Ac)GGK(Ac)GLGK(Ac)GGAK(Ac)RHRKVLRDNGSGSK-biotin. The recombinant BRD4(2) protein produced in-house according to Filippakopoulos et al., Cell, 2012, 149:214-231 was expressed in E. coli and purified by means of (Ni-NTA) affinity and (Sephadex G-75) size exclusion chromatography. The Ac-H4 peptide can be purchased, for example, from Biosyntan (Berlin, Germany).
In the assay, typically 11 different concentrations of each substance (0.1 nM, 0.33 nM, 1.1 nM, 3.8 nM, 13 nM, 44 nM, 0.15 μM, 0.51 μM, 1.7 μM, 5.9 μM and 20 μM) were analysed as duplicates on the same microtitre plate. For this purpose, 100-fold concentrated solutions in DMSO were prepared by serial dilutions (1:3.4) of a 2 mM stock solution into a clear, 384-well microtitre plate (Greiner Bio-One, Frickenhausen, Germany). From this, 50 nl were transferred into a black test plate (Greiner Bio-One, Frickenhausen, Germany). The test was started by the addition of 2 μl of a 2.5-fold concentrated BRD4(2) solution (final concentration typically 100 nM in the 5 μl of reaction volume) in aqueous assay buffer [50 mM HEPES pH 7.5, 50 mM sodium chloride (NaCl); 50 mM potassium fluoride (KF); 0.25 mM CHAPS and 0.05% serum albumin (BSA)] to the substances in the test plate. This was followed by a 10-minute incubation step at 22° C. for the pre-equilibration of putative complexes between BRD4(2) and the substances.
The mixture was then incubated in the dark at 22° C. for one hour and then at 4° C. for at least 3 hours and for no longer than overnight. The formation of BRD4(2)/Ac-H4 complexes was determined by the measurement of the resonance energy transfer from the streptavidin-Eu chelate to the anti-6His-XL665 antibody present in the reaction. For this purpose, the fluorescence emission was measured at 620 nm and 665 nm after excitation at 330-350 nm in a TR-FRET measuring instrument, for example a Rubystar or Pherastar (both from BMG Lab Technologies, Offenburg, Germany) or a Viewlux (Perkin-Elmer). The ratio of the emissions at 665 nm and at 622 nm was taken as an indicator of the amount of BRD4(2)/Ac-H4 complexes formed.
The data (ratios) obtained were normalized, with 0% inhibition corresponding to the mean from the measurements for a set of controls (typically 32 data points) in which all the reagents were present. In these, in place of test substances, 50 nl of DMSO (100%) were used. Inhibition of 100% corresponded to the mean from the measurements for a set of controls (typically 32 data points) in which all the reagents except BRD4(2) were present. The IC50 was determined by regression analysis based on a 4-parameter equation (minimum, maximum, IC50, Hill; Y=Max+(Min−Max)/(1+(X/IC50)Hill)).

MOLP-8 cells = test: Cell proliferation assay MOLP-8 (alamarBlue); type: cell-based; conditions: Homo sapiens, multiple myeloma cells, 120 hours
Method: In accordance with the invention, the ability of the substances to inhibit cell proliferation was determined. Cell viability was determined by means of the alamarBlue® reagent (Invitrogen) in a Victor X3 Multilabel Reader (Perkin Elmer). The excitation wavelength was 530 nm and the emission wavelength […].
The MOLP-8 cells (DSMZ, ACC 569) were seeded at a concentration of 4000 cells/well in 100 μl of growth medium (RPMI1640, 20% FCS) on 96-well microtitre plates.
After overnight incubation at 37° C., the fluorescence values (CI values) were determined. Then the plates were treated with various substance dilutions (1E-5 M, 3E-6 M, 1E-6 M, 3E-7 M, 1E-7 M, 3E-8 M, 1E-8 M) and incubated at 37° C. over 96 hours (MOLM-13, B16F10, CHL-1 cells) or 120 hours (MOLP-8 cells). Subsequently, the fluorescence values were determined (CO values). For the data analysis, the CI values were subtracted from the CO values and the results were compared between cells which had been treated with various dilutions of the substance or only with buffer solution. The IC50 values (substance concentration needed for 50% inhibition of cell proliferation) were calculated therefrom.
The substances were tested in the cell lines in Table 2, which represent the indications specified by way of example: […]

Row | Structure (SMILES) | IC50 [1] | IC50 (MOLP-8 cells)
1 | COc1ccc(S(=O)(=O)C(C)C)cc1Nc1ccc2c(n1)N(C1CCN(CC(F)(F)F)CC1)[C@H](C)C(=O)N2C [Example 28, (3R)-6-{[5-(Isopropylsulphonyl)-2-methoxyphenyl]amino}-1,3-dimethyl-4-[1-(2,2,2-trifluoroethyl)piperidin-4-yl]-3,4-dihydropyrido[2,3-b]pyrazin-2(1H)-one] | 63 nM | 
2 | CC(C)S(=O)(=O)c1cccc(Nc2ccc3c(n2)N(C2CCN(C)CC2)[C@H](C)C(=O)N3C)c1 [Example 19, (3R)-6-{[3-(Isopropylsulphonyl)phenyl]amino}-1,3-dimethyl-4-(1-methylpiperidin-4-yl)-3,4-dihydropyrido[2,3-b]pyrazin-2(1H)-one] | 47 nM | 
3 | COc1ccc(S(=O)(=O)C2CCOCC2)cc1Nc1ccc2c(n1)N(C1CCN(C)CC1)[C@H](C)C(=O)N2C [Example 22, (3R)-6-{[2-Methoxy-5-(tetrahydro-2H-pyran-4-ylsulphonyl)phenyl]amino}-1,3-dimethyl-4-(1-methylpiperidin-4-yl)-3,4-dihydropyrido[2,3-b]pyrazin-2(1H)-one] | 54 nM | 
4 | COc1ccc(S(=O)(=O)C(C)C)cc1Nc1ccc2c(n1)N(C1CCN(CCC(F)(F)F)CC1)[C@H](C)C(=O)N2C [Example 31, (3R)-6-{[5-(Isopropylsulphonyl)-2-methoxyphenyl]amino}-1,3-dimethyl-4-[1-(3,3,3-trifluoropropyl)piperidin-4-yl]-3,4-dihydropyrido[2,3-b]pyrazin-2(1H)-one] | 68 nM | 
5 | COc1ccc(S(=O)(=O)C(C)C)cc1Nc1ccc2c(n1)N(C1CCN(CC(F)F)CC1)[C@H](C)C(=O)N2C [Example 29, (3R)-4-[1-(2,2-Difluoroethyl)piperidin-4-yl]-6-{[5-(isopropylsulphonyl)-2-methoxyphenyl]amino}-1,3-dimethyl-3,4-dihydropyrido[2,3-b]pyrazin-2(1H)-one] | 67 nM | 
6 | COc1ccc(S(C)(=O)=O)cc1Nc1ccc2c(n1)N(C(C)C)[C@H](C)C(=O)N2C [Example 14, (3R)-4-Isopropyl-6-{[2-methoxy-5-(methylsulphonyl)phenyl]amino}-1,3-dimethyl-3,4-dihydropyrido[2,3-b]pyrazin-2(1H)-one] | 76 nM | 174 nM
7 | COc1ccc(S(=O)(=O)C(C)C)cc1Nc1ccc2c(n1)N(C1CCOCC1)[C@H](C)C(=O)N2C [Example 9, (3R)-6-{[5-(Isopropylsulphonyl)-2-methoxyphenyl]amino}-1,3-dimethyl-4-(tetrahydro-2H-pyran-4-yl)-3,4-dihydropyrido[2,3-b]pyrazin-2(1H)-one] | 53 nM | 38 nM
8 | COc1ccc(S(=O)(=O)C2CCOCC2)cc1Nc1ccc2c(n1)N(C1CCOCC1)[C@H](C)C(=O)N2C [Example 34, (3R)-6-{[2-Methoxy-5-(tetrahydro-2H-pyran-4-ylsulphonyl)phenyl]amino}-1,3-dimethyl-4-(tetrahydro-2H-pyran-4-yl)-3,4-dihydropyrido[2,3-b]pyrazin-2(1H)-one] | 44 nM | 
9 | COc1ccc(S(=O)(=O)C2CC2)cc1Nc1ccc2c(n1)N(C(C)C)[C@H](C)C(=O)N2C [Example 15, (3R)-6-{[5-(Cyclopropylsulphonyl)-2-methoxyphenyl]amino}-4-isopropyl-1,3-dimethyl-3,4-dihydropyrido[2,3-b]pyrazin-2(1H)-one] | 49 nM | 118 nM
10 | COc1ccc(S(=O)(=O)C(C)C)cc1Nc1ccc2c(n1)N(C(C)C)[C@H](C)C(=O)N2C [Example 16, (3R)-4-Isopropyl-6-{[5-(isopropylsulphonyl)-2-methoxyphenyl]amino}-1,3-dimethyl-3,4-dihydropyrido[2,3-b]pyrazin-2(1H)-one] | 33 nM | 135 nM
11 | COc1ccc(S(C)(=O)=O)cc1Nc1ccc2c(n1)N(C1CCNCC1)[C@H](C)C(=O)N2C [Example 27, (3R)-6-{[2-Methoxy-5-(methylsulphonyl)phenyl]amino}-1,3-dimethyl-4-(piperidin-4-yl)-3,4-dihydropyrido[2,3-b]pyrazin-2(1H)-one] | 83 nM | 
12 | COc1ccc(S(=O)(=O)C(F)(F)F)cc1Nc1ccc2c(n1)N(C1CCN(C)CC1)[C@H](C)C(=O)N2C [Example 21, (3R)-6-({2-Methoxy-5-[(trifluoromethyl)sulphonyl]phenyl}amino)-1,3-dimethyl-4-(1-methylpiperidin-4-yl)-3,4-dihydropyrido[2,3-b]pyrazin-2(1H)-one] | 58 nM | 
13 | COc1ccc(S(=O)(=O)C(F)(F)F)cc1Nc1ccc2c(n1)N(C1CCOCC1)[C@H](C)C(=O)N2C [Example 39, (3R)-6-({2-Methoxy-5-[(trifluoromethyl)sulphonyl]phenyl}amino)-1,3-dimethyl-4-(tetrahydro-2H-pyran-4-yl)-3,4-dihydropyrido[2,3-b]pyrazin-2(1H)-one] | 56 nM | 
14 | COc1ccc(S(=O)(=O)C(C)C)cc1Nc1ccc2c(n1)N(C1CCNCC1)[C@H](C)C(=O)N2C [Example 26, (3R)-6-{[5-(Isopropylsulphonyl)-2-methoxyphenyl]amino}-1,3-dimethyl-4-(piperidin-4-yl)-3,4-dihydropyrido[2,3-b]pyrazin-2(1H)-one] | 52 nM | 
15 | COc1ccc(S(=O)(=O)C2CCC2)cc1Nc1ccc2c(n1)N(C1CCOCC1)[C@H](C)C(=O)N2C [Example 35, (3R)-6-{[5-(Cyclobutylsulphonyl)-2-methoxyphenyl]amino}-1,3-dimethyl-4-(tetrahydro-2H-pyran-4-yl)-3,4-dihydropyrido[2,3-b]pyrazin-2(1H)-one] | 51 nM | 
16 | COc1cc(Nc2ccc3c(n2)N(C2CCOCC2)[C@H](C)C(=O)N3C)cc(S(C)(=O)=O)c1 [Example 40, (3R)-6-{[3-Methoxy-5-(methylsulphonyl)phenyl]amino}-1,3-dimethyl-4-(tetrahydro-2H-pyran-4-yl)-3,4-dihydropyrido[2,3-b]pyrazin-2(1H)-one] | 94 nM | 
17 | CC(C)S(=O)(=O)c1ccc(OC(F)(F)F)c(Nc2ccc3c(n2)N(C2CCOCC2)[C@H](C)C(=O)N3C)c1 [Example 38, (3R)-6-{[5-(Isopropylsulphonyl)-2-(trifluoromethoxy)phenyl]amino}-1,3-dimethyl-4-(tetrahydro-2H-pyran-4-yl)-3,4-dihydropyrido[2,3-b]pyrazin-2(1H)-one] | 52 nM | 
18 | CC(C)S(=O)(=O)c1ccc(OC(F)(F)F)c(Nc2ccc3c(n2)N(C2CCN(C)CC2)[C@H](C)C(=O)N3C)c1 [Example 20, (3R)-6-{[5-(Isopropylsulphonyl)-2-(trifluoromethoxy)phenyl]amino}-1,3-dimethyl-4-(1-methylpiperidin-4-yl)-3,4-dihydropyrido[2,3-b]pyrazin-2(1H)-one] | 65 nM | 
